Measurements taken from article PMC8248988, “A signal capture and proofreading mechanism for the KDEL-receptor explains selectivity and dynamic range in ER retrieval” (eLife, 2021).

Key:
[1] = test system: BIP; assay: ER chaperone secretion assay, BIP; type: cell-based, human
Source text: (§1) Figure 1. ER retrieval signal abundance and affinity are not correlated. (a) Sequence logos for ER resident proteins with C-terminal KDEL retrieval signals and variants thereof calculated using frequency or protein abundance ([Itzhak et al., 2017]; [Itzhak et al., 2016]). (b) Combined cellular concentrations of ER resident proteins with canonical KDEL, RDEL, and HDEL retrieval sequences in HeLa cells and mouse brain. (c) Competition binding assays for [^3H]-TAEHDEL and unlabelled TAEKDEL, TAERDEL, and TAEHDEL to the KDEL receptor. IC50 values for the competing peptides were used to calculate the apparent KDwith the Cheng-Prusoff equation ([Cheng and Prusoff, 1973]). (d) Endogenous KDEL receptor redistribution was measured in COS-7 cells in the absence (-ligand) or presence of K/R/H/A/DDEL (mScarlet-xDEL^sec). TGN46 was used as a Golgi marker. Scale bar is 10 µm. (e) The mean difference for K/R/H/A/DDEL comparisons against the shared no ligand control are shown as Cummings estimation plots. The individual data points for the fraction of KDEL receptor fluorescence in the Golgi are plotted on the upper axes with sample sizes and p values. Figure 1—source data 1. Source data for the ligand-induced KDELR receptor retrieval assays in Figure 1e. Figure 1—figure supplement 1. Abundance of ER resident proteins and chaperones in human cells and mouse brain. (a) The mean concentration of ER resident chaperones with the indicated ER retrieval sequence variant is plotted in the bar graph ([Itzhak et al., 2017]; [Itzhak et al., 2016]). […] Endogenous ER chaperone secretion was measured by western blotting after challenge with different retrieval signals, and plotted as a bar graph showing mean ± SEM (n = 3). […] (a) Distribution of human KDELR1 and (b) KDELR2 was measured in COS-7 cells in the absence (-ligand) or presence of K/R/H/A/DDEL retrieval signals (K/R/H/A/DDEL^sec). […] The fraction of KDEL receptor localised to the Golgi was measured before (no ligand) and after challenge with different retrieval signals as indicated. […]

[2] = test system: endogenous KDEL receptor in COS-7 cells; assay: ER retrieval assay, endogenous KDEL receptor redistribution; type: cell-based, African green monkey
Source text: as §1, with “1.” for “1. Abundance of ER resident proteins and chaperones in human cells and mouse brain. (a) The mean concentration of ER resident chaperones with the indicated ER retrieval sequence variant is plotted in the bar graph ([Itzhak et al., 2017]; [Itzhak et al., 2016]).”
To create KDELR1-GFP and KDELR2-GFP, the reading frames for Homo sapiens KDELR1 (Uniprot: P24390) and KDELR2 (Uniprot: P33947) were cloned into the pEF5/FRT low level mammalian expression vector with a C-terminal 20 amino acid linker made up of 5 copies of Gly-Ser-Ser-Ser followed by GFP. […]

## ADEL [pcDNA3.1 hGHss-mScarlet-H. sapiens BiP639-654K651A (ADEL^SEC), secreted mScarlet fusion with human BiP C-terminus, ADEL signal]
[1]; mean, HeLa S3, 24 hr, Western blot densitometry
  BiP secretion after challenge with retrieval signal: 8.5
[1]; replicate 1
  BiP secretion after challenge with retrieval signal: 15.9
[1]; replicate 2
  BiP secretion after challenge with retrieval signal: 1.1
[2]; COS-7 cells
  localisation of the mScarlet ligand (in words): predominantly Golgi and punctate localisation consistent with secretion
[2]; COS-7 cells expressing mScarlet-xDEL^sec
  endogenous KDEL receptor redistribution from Golgi to ER (in words): little effect on the Golgi-ER distribution of the receptor
